The values below are quoted from earlier work in patent US20240397939A1, “COMPOSITIONS COMPRISING DIFFERENT DRIFT RETARDING AGENTS” (BAYER CROPSCIENCE LP, priority 2021, published 2024).

For the series the following is noted: known HLB value, estimation by Griffin's method.

On to Sorbitan monooleate [Span® 80], for which the HLB is 4.3.
As for “Polysorbate 80 (polyoxyethylene sorbitan monooleate) [Tween® 80]”, the HLB is recorded as 15.
